Residues, ends and D or L forms follow the SMILES beside them.
Key:
[1] = format: physicochemical; conditions: pH 7.8
Method: Each lyophilized peptide was weighed in an amber vial. A calculated volume of phosphate buffered solution at pH 7.8 was added in order to directly obtain 10 mM Stock Solutions. The recovered suspensions were stirred for 30 minutes by orbital shaker incubator at 37° C. Subsequent dilutions were performed to obtain the more diluted stock solutions for the less soluble compounds.
In order to evaluate the stability and the solubility, all the stock solutions were stored at 25° C. The title was evaluated by UHPLC-MS analysis in comparison with the standard solutions, at 3 time points: T0, 3 days, 1 week.
The chromatographic profile was evaluated for the quantitative assay while the MS spectra were detected as support in the stability studies.
Each peptide was weighed and directly diluted at 100 μM with the phosphate buffer at pH 7.8. The solutions were stirred for 5 minutes by vortex and heated at 37° C. for 20 minutes. The obtained standard solution was stored at 25° C. in the dark under controlled temperature.
A portion of the stock solutions was collected in an amber vial and diluted to 100 μM by phosphate buffer at pH 7.8 (dilution factor, 1:100).
Reversed-phase UHPLC was performed operating at a flow rate of 0.3 ml/min with a Luna Omega Polar C18 column ([…] 1.6 μm, 2.1×100 mm). Solvent A was 0.5% Formic Acid in water and solvent B was 0.5% Formic Acid in acetonitrile. First, samples were loaded onto the column and washed isocratically at 10% B for 3 min. Then, a gradient of 10-95% B was run over 22 min, held at 95% for 2 min, and then decreased to 10% over 1 min and held, for the pressure stabilization, for 5 min. UV Absorption was monitored by DAD (220-400 nm). ESI-MS ion trap was used for the monitoring of TIC.

[2] = Isoelectric point, log D and log P (SiriusT3); format: physicochemical
Method: The main physicochemical properties (Isoelectric point (IP), log D (7.4) and log P) of the peptides of Table 8 below were determined by using the SiriusT3 apparatus (Sirius Analytical Instruments Ltd., East Sussex, UK) equipped with an Ag/AgCl double junction reference pH electrode, a Sirius D-PAS spectrometer and a turbidity sensing device. […] An overhead stirrer was used and a temperature probe (Peltier controller) monitored the temperature during the course of the titration. The titration experiments were conducted in 0.15 M KCl Ionic Strength Adjusted solution (ISA water) under a nitrogen atmosphere at a temperature of 25±1° C. All tests were performed using standardized 0.5 M KOH and 0.5 M HCl as titration reagents, for the partition coefficient tests a saturated Octanol in ISA water (5% of ISA water) was used as partition solvent. The pKas were determined by potentiometric method by pH-metric titration. The powder (around 0.5 mg) was dissolved in 1.5 ml of ISA water and the titration was performed in triplicate in the pH range 2.0−12.0.

[3] = biological target: IL-17RA/IL17RC dimerization induced by IL-17A (Homo sapiens, UniProt Q16552); experiment: IL-17RA/IL17RC dimerization assay in response to IL-17A (PathHunter Cytokine Receptor Assay); format: cell-based; conditions: IL-17A at EC80; read-out: IC50 in IL-17RA/IL7RC dimerization assay
Method in brief: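 Receptor dimerization was read as chemiluminescence from complemented β-galactosidase after IL-17A at EC80 concentration for 6–16 h at 37 °C. Peptides were added 60 min before agonist, at 37 °C or room temperature, with 1% vehicle. Percent inhibition used the EC80-stimulated and vehicle wells as references.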

Sequence of IL-17RA/IL17RC dimerization induced by IL-17A (Q16552 24-155): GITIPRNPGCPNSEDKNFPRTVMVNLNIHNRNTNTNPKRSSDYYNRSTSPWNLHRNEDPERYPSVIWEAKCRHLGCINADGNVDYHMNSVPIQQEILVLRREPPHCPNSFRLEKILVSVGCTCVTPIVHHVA

CC[C@H](C)[C@H](NC(C)=O)C(=O)N[C@@H](Cc1c[nH]cn1)C(=O)N[C@H](C(=O)N[C@H](C(=O)N[C@H](C(=O)N1CCC[C@H]1C(=O)N[C@@H](C)C(=O)N[C@@H](CC(=O)O)C(=O)N[C@@H](CC(C)C)C(=O)N[C@@H](Cc1ccc(O)cc1)C(=O)N[C@@H](CCC(=O)O)C(=O)N[C@@H](Cc1c[nH]c2ccccc12)C(=O)N[C@H](C(=O)N[C@@H](CC(N)=O)C(=O)N[C@@H](CCCCN)C(N)=O)[C@@H](C)CC)[C@@H](C)CC)[C@@H](C)O)C(C)C [SEQ ID NO: 7] (Ac-IHVTIPADLYEWINK-NH2)
solubility [1]: > 10 mM
logP [2]: −0.86
IP (isoelectric point) ([2]; 25±1° C., 0.15 M KCl): 5.19
Log D (7.4) ([2]; pH 7.4): −1.41

CC[C@H](C)[C@H](NC(C)=O)C(=O)N[C@@H](Cc1c[nH]cn1)C(=O)N[C@H](C(=O)N[C@H](C(=O)N[C@H](C(=O)N1CCC[C@H]1C(=O)N[C@@H](CC(C)C)C(=O)N[C@@H](CCC(=O)O)C(=O)N[C@H](C(=O)N[C@@H](Cc1ccccc1)C(=O)N[C@@H](CCC(=O)O)C(=O)N[C@@H](Cc1c[nH]c2ccccc12)C(=O)N[C@@H](CC(C)C)C(=O)N[C@@H](CCC(N)=O)C(=O)N[C@@H](Cc1c[nH]cn1)C(N)=O)[C@@H](C)CC)[C@@H](C)CC)[C@@H](C)O)C(C)C [SEQ ID NO: 246] (Ac-IHVTIPLEIFEWLQH-NH2)
IC50 [3]: < 10 µM

CC[C@H](C)[C@H](NC(C)=O)C(=O)N[C@@H](Cc1c[nH]cn1)C(=O)N[C@H](C(=O)N[C@H](C(=O)N[C@H](C(=O)N1CCC[C@H]1C(=O)N[C@@H](CC(C)C)C(=O)N[C@@H](CCC(=O)O)C(=O)N[C@H](C(=O)N[C@@H](Cc1ccccc1)C(=O)N[C@@H](CCC(=O)O)C(=O)N[C@@H](Cc1c[nH]c2ccccc12)C(=O)N[C@@H](C)C(=O)N[C@@H](CCC(N)=O)C(=O)N[C@@H](Cc1c[nH]cn1)C(N)=O)[C@@H](C)CC)[C@@H](C)CC)[C@@H](C)O)C(C)C [SEQ ID NO: 247] (Ac-IHVTIPLEIFEWAQH-NH2)
IC50 [3]: < 10 µM

CC[C@H](C)[C@H](NC(C)=O)C(=O)N[C@@H](Cc1c[nH]cn1)C(=O)N[C@H](C(=O)N[C@H](C(=O)N[C@H](C(=O)N1CCC[C@H]1C(=O)N[C@@H](CC(C)C)C(=O)N[C@@H](CCC(=O)O)C(=O)N[C@H](C(=O)N[C@@H](Cc1ccccc1)C(=O)N[C@@H](CCC(=O)O)C(=O)N[C@@H](Cc1c[nH]c2ccccc12)C(=O)N[C@@H](CC(C)C)C(=O)N[C@@H](CCC(N)=O)C(=O)N[C@@H](CCCNC(=N)N)C(N)=O)[C@@H](C)CC)[C@@H](C)CC)[C@@H](C)O)C(C)C [SEQ ID NO: 248] (Ac-IHVTIPLEIFEWLQR-NH2)
IC50 [3]: < 10 µM

CC[C@H](C)[C@H](NC(C)=O)C(=O)N[C@@H](Cc1c[nH]cn1)C(=O)N[C@H](C(=O)N[C@H](C(=O)N[C@H](C(=O)N1CCC[C@H]1C(=O)N[C@@H](CC(C)C)C(=O)N[C@@H](CCC(=O)O)C(=O)N[C@H](C(=O)N[C@@H](Cc1ccccc1)C(=O)N[C@@H](CCC(=O)O)C(=O)N[C@@H](Cc1c[nH]c2ccccc12)C(=O)N[C@@H](CC(C)C)C(=O)N[C@@H](CCC(N)=O)C(=O)N[C@@H](Cc1c[nH]cn1)C(N)=O)C(C)C)[C@@H](C)CC)[C@@H](C)O)C(C)C [SEQ ID NO: 249] (Ac-IHVTIPLEVFEWLQH-NH2)
IC50 [3]: < 10 µM

CC[C@H](C)[C@H](NC(C)=O)C(=O)N[C@@H](Cc1c[nH]cn1)C(=O)N[C@H](C(=O)N[C@H](C(=O)N[C@H](C(=O)N1CCC[C@H]1C(=O)NCC(=O)N[C@@H](CCC(=O)O)C(=O)N[C@H](C(=O)N[C@@H](Cc1ccccc1)C(=O)N[C@@H](CCC(=O)O)C(=O)N[C@@H](Cc1c[nH]c2ccccc12)C(=O)N[C@@H](CC(C)C)C(=O)N[C@@H](CCC(N)=O)C(=O)N[C@@H](Cc1c[nH]cn1)C(N)=O)[C@@H](C)CC)[C@@H](C)CC)[C@@H](C)O)C(C)C [SEQ ID NO: 250] (Ac-IHVTIPGEIFEWLQH-NH2)
IC50 [3]: < 10 µM

CC[C@H](C)[C@H](NC(=O)[C@H](CCC(=O)O)NC(=O)[C@H](CCC(N)=O)NC(=O)[C@@H]1CCCN1C(=O)[C@@H](NC(=O)[C@H](CO)NC(=O)[C@H](Cc1ccccc1)NC(=O)[C@H](CCCNC(=N)N)NC(=O)[C@@H](NC(C)=O)C(C)C)C(C)C)C(=O)N[C@@H](Cc1ccc(O)cc1)C(=O)N[C@@H](CCC(=O)O)C(=O)N[C@@H](Cc1c[nH]c2ccccc12)C(=O)N[C@H](C(=O)N[C@@H](CCCNC(=N)N)C(=O)N[C@@H](CCCNC(=N)N)C(N)=O)C(C)C [SEQ ID NO: 251] (Ac-VRFSVPQEIYEWVRR-NH2)
IC50 [3]: < 10 µM

CC[C@H](C)[C@H](NC(=O)[C@H](CCC(=O)O)NC(=O)[C@H](CC(C)C)NC(=O)[C@@H]1CCCN1C(=O)[C@@H](NC(=O)[C@H](CO)NC(=O)[C@@H](NC(=O)[C@H](CCCNC(=N)N)NC(=O)[C@H](CC(C)C)NC(C)=O)[C@@H](C)CC)C(C)C)C(=O)N[C@@H](Cc1ccccc1)C(=O)N[C@@H](CCC(=O)O)C(=O)N[C@@H](Cc1c[nH]c2ccccc12)C(=O)N[C@@H](CC(C)C)C(=O)N[C@@H](CCC(N)=O)C(=O)N[C@@H](Cc1c[nH]cn1)C(N)=O [SEQ ID NO: 252] (Ac-LRISVPLEIFEWLQH-NH2)
IC50 [3]: < 10 µM

CC[C@H](C)[C@H](NC(=O)[C@H](CCC(=O)O)NC(=O)[C@H](CC(C)C)NC(=O)[C@@H]1CCCN1C(=O)[C@@H](NC(=O)[C@H](CO)NC(=O)CNC(=O)[C@H](CCCNC(=N)N)NC(=O)[C@H](CC(C)C)NC(C)=O)C(C)C)C(=O)N[C@@H](Cc1ccccc1)C(=O)N[C@@H](CCC(=O)O)C(=O)N[C@@H](Cc1c[nH]c2ccccc12)C(=O)N[C@@H](CC(C)C)C(=O)N[C@@H](CCC(N)=O)C(=O)N[C@@H](Cc1c[nH]cn1)C(N)=O [SEQ ID NO: 253] (Ac-LRGSVPLEIFEWLQH-NH2)
IC50 [3]: < 10 µM

CC[C@H](C)[C@H](NC(=O)[C@H](CCC(=O)O)NC(=O)[C@H](CC(C)C)NC(=O)[C@@H]1CCCN1C(=O)[C@@H](NC(=O)[C@H](CO)NC(=O)[C@@H](NC(=O)[C@H](CCCCN)NC(=O)[C@@H](NC(C)=O)C(C)C)[C@@H](C)CC)C(C)C)C(=O)N[C@@H](Cc1ccccc1)C(=O)N[C@@H](CCC(=O)O)C(=O)N[C@@H](Cc1c[nH]c2ccccc12)C(=O)N[C@@H](CC(C)C)C(=O)N[C@@H](CCC(N)=O)C(=O)N[C@@H](Cc1c[nH]cn1)C(N)=O [SEQ ID NO: 254] (Ac-VKISVPLEIFEWLQH-NH2)
IC50 [3]: < 10 µM

CC(=O)N[C@H](C(=O)N[C@@H](CCC(=O)O)C(=O)N[C@@H](Cc1ccccc1)C(=O)N[C@@H](CC(N)=O)C(=O)N[C@@H](Cc1ccccc1)C(=O)N1CCC[C@H]1C(=O)N[C@@H](CCC(N)=O)C(=O)N[C@@H](CCC(N)=O)C(=O)N[C@H](C(=O)N[C@@H](Cc1ccc(O)cc1)C(=O)N[C@@H](CCC(=O)O)C(=O)N[C@@H](Cc1c[nH]c2ccccc12)C(=O)N[C@@H](Cc1ccccc1)C(=O)N[C@@H](CC(=O)O)C(=O)N[C@@H](CC(=O)O)C(N)=O)C(C)C)C(C)C [SEQ ID NO: 255] (Ac-VEFNFPQQVYEWFDD-NH2)
IC50 [3]: < 10 µM

CC(=O)N[C@H](C(=O)N[C@@H](CCC(=O)O)C(=O)N[C@@H](Cc1ccccc1)C(=O)N[C@@H](CC(N)=O)C(=O)N[C@@H](Cc1ccccc1)C(=O)N1CCC[C@H]1C(=O)N[C@@H](CCC(N)=O)C(=O)N[C@@H](CCC(N)=O)C(=O)N[C@H](C(=O)N[C@@H](Cc1ccc(O)cc1)C(=O)N[C@@H](CCC(=O)O)C(=O)N[C@@H](Cc1c[nH]c2ccccc12)C(=O)N[C@H](C(=O)N[C@@H](CCCNC(=N)N)C(=O)N[C@@H](CCCNC(=N)N)C(N)=O)C(C)C)C(C)C)C(C)C [SEQ ID NO: 256] (Ac-VEFNFPQQVYEWVRR-NH2)
IC50 [3]: < 10 µM

CC(=O)N[C@H](C(=O)N[C@H](C(=O)N[C@H](C(=O)N[C@@H](Cc1ccc(O)cc1)C(=O)N[C@H](C(=O)N[C@@H](Cc1ccccc1)C(=O)N[C@@H](CC(N)=O)C(=O)N[C@@H](CCC(=O)O)C(=O)N[C@@H](CCC(N)=O)C(=O)N[C@@H](Cc1c[nH]cn1)C(=O)N[C@@H](CCC(N)=O)C(=O)N[C@@H](CCC(=O)O)C(=O)N[C@@H](Cc1ccc(O)cc1)C(=O)N[C@H](C(=O)N[C@@H](CCCNC(=N)N)C(=O)N[C@@H](CCCCN)C(N)=O)C(C)C)C(C)C)C(C)C)C(C)C)[C@@H](C)O [SEQ ID NO: 257] (Ac-TVVYVFNEQHQEYVRK-NH2)
IC50 [3]: < 10 µM

Reference: patent US11236129B2, “IL-17A binding peptides and medical uses thereof” (Dompe' Farmaceutici S.P.A., priority 2018, dated 2022)
